Values of other authors, collected in patent US9585827B2, “Kits comprising a beverage composition and information for use” (The Procter & Gamble Company, priority 2000, dated 2017).

Columns and labels:
[1] = Reussner et al. 1975; phosphate added to low pH powdered beverage compositions
[2] = system: dental caries; details: Städtler et al. 1996; toothpaste formulations of near-neutral pH

O=P1([O-])OP(=O)([O-])OP(=O)([O-])OP(=O)([O-])OP(=O)([O-])OP(=O)([O-])O1.[Na+].[Na+].[Na+].[Na+].[Na+].[Na+] [sodium hexametaphosphate]
protective effect against molar erosion [1]: did not produce significant protective effects

O=P1([O-])OP(=O)([O-])OP(=O)([O-])O1.[Na+].[Na+].[Na+] [trimetaphosphate]
effect against dental caries [2]: may be effective against dental caries
